# Structures can show the parent of a compound that is named as a salt.
# Experiments:
# Jurkat cells [1] = assay: Jurkat cell adhesion system (adhesion to immobilized human fibronectin, PMA-stimulated); type: cell-based; details: concentration inhibiting by 50% the PMA-stimulated increase in adhered Jurkat cells on human fibronectin
# Source text: The “C1-6 haloalkyl” of Group A1 and Group A2 (mentioned below) is aforementioned “C1-6 alkyl” having 1-6 aforementioned “halogen” bonded thereto, as examples there may be mentioned straight-chain or branched-chain alkyl groups such as methyl, ethyl, n-propyl, isopropyl, n-butyl, isobutyl, s-butyl, t-butyl, pentyl, isopentyl, 2-methylbutyl, neopentyl, 1-ethylpropyl, hexyl, isohexyl, 4-methylpentyl, 3-methylpentyl, 2-methylpentyl, 1-methylpentyl, 3,3-dimethylbutyl, 2,2-dimethylbutyl, 1,1-dimethylbutyl, 1,2-dimethylbutyl, 1,3-dimethylbutyl, 2,3-dimethylbutyl, 1-ethylbutyl or 2-ethylbutyl, having fluorine or chlorine bonded thereto, among which C1-4 alkyl having 1 to 3 fluorine or chlorine bonded thereto is preferred, and trifluoromethyl is particularly preferred.
# As examples of the “C2-7 alkylene”, where C2-7 alkylene is permissible only in the case that a spiro union is formed together with the substituted 5- to 10-membered cycloalkyl or the substituted 5- to 10-membered cycloalkenyl, of Group A1 and Group A2 (mentioned below), there may be mentioned straight-chain or branched-chain groups such as 1,2-ethylene, trimethylene, propylene, ethylethylene, tetramethylene, pentamethylene, hexamethylene or heptamethylene, among which 1,2-ethylene, trimethylene, tetramethylene or pentamethylene is preferred, and 1,2-ethylene, tetramethylene or pentamethylene is particularly preferred.
# As examples of the “halogen” of Group W1 there may be mentioned the same ones listed above, among which fluorine or chlorine is preferred.
# As examples of the “C1-6 alkyl” of Group W1 there may be mentioned the same ones listed above, among which C1-4 groups are preferred, and methyl or ethyl is particularly preferred.
# The “C2-7 alkoxyalkyl” of Group W1 is aforementioned “C1-6 alkyl” having the aforementioned “C1-6 alkoxy” bonded thereto, of 2 to 7 carbon (total number of carbon), and as examples there may be mentioned methoxymethyl, methoxyethyl, ethoxyethyl, methoxypropyl or propoxyethyl, among which methoxymethyl is preferred.
# As examples of the “C1-6 alkoxy” of the “C1-6 alkoxy optionally substituted with a substituent selected from Group T1” of Group W1 there may be mentioned the same ones listed above, among which C1-4 groups are preferred, and methoxy, ethoxy, isopropoxy or propoxy is particularly preferred.
# [2] = tested on: human peripheral blood neutrophils; assay: Human peripheral blood neutrophil adhesion system (adhesion to HUVEC immobilized plate, PMA-stimulated); type: cell-based; details: concentration inhibiting by 50% the PMA-stimulated increase in neutrophils adhered to HUVEC
# Source text: As examples of the “C2-7 alkylcarbonyl” of Group W1 there may be mentioned the same ones listed above, among which C2-5 groups are preferred, and acetyl is particularly preferred.
# As examples of the “C1-6 alkyl” for R^6X and R^7X there may be mentioned the same ones listed above.
# As examples of the “halogen” of Group C1 there may be mentioned the same ones listed above, among which bromine, fluorine or chlorine is preferred.
# As examples of the “C1-6 alkyl” of Group C1 there may be mentioned the same ones listed above, among which C1-4 groups are preferred, and methyl is particularly preferred.
# As examples of the “C1-6 alkoxy” of Group C1 there may be mentioned the same ones listed above, among which C1-4 groups are preferred, and methoxy or ethoxy is particularly preferred.
# As examples of the “halogen” of Group D1 and Group D2 (mentioned below) there may be mentioned the same ones listed above, among which fluorine or chlorine is preferred.
# As examples of the “C1-6 alkoxy” of Group D1 and Group D2 (mentioned below) there may be mentioned the same ones listed above, among which C1-4 groups are preferred, and methoxy or ethoxy is particularly preferred.
# The “C1-6 alkylthio” of Group D1 is a thio group having the aforementioned “C1-6 alkyl” bonded thereto, and as examples there may be mentioned straight-chain or branched-chain groups such as methylthio, ethylthio, propylthio, isopropylthio, […], isobutylthio, s-butylthio, t-butylthio, pentylthio, isopentylthio, 2-methylbutylthio, neopentylthio, 1-ethylpropylthio, hexylthio, isohexylthio, 4-methylpentylthio, 3-methylpentylthio, 2-methylpentylthio, 1-methylpentylthio, 3,3-dimethylbutylthio, 2,2-dimethylbutylthio, 1,1-dimethylbutylthio, 1,2-dimethylbutylthio, 1,3-dimethylbutylthio, 2,3-dimethylbutylthio, 1-ethylbutylthio or 2-ethylbutylthio, among which C1-4 groups are preferred, and methylthio or ethylthio is particularly preferred.
# As examples of the “C1-6 alkylsulfonyl” of Group D1 there may be mentioned the same ones listed above, among which C1-4 groups are preferred, and methylsulfonyl or ethylsulfonyl is particularly preferred.
# The “C1-6 alkylsulfinyl” of Group D1 is a sulfinyl group having the aforementioned “C1-6 alkyl” bonded thereto, as examples there may be mentioned straight-chain or branched-chain groups such as methylsulfinyl, ethylsulfinyl, propylsulfinyl, isopropylsulfinyl, […], isobutylsulfinyl, s-butylsulfinyl, t-butylsulfinyl, pentylsulfinyl, isopentylsulfinyl, 2-methylbutylsulfinyl, neopentylsulfinyl, 1-ethylpropylsulfinyl, hexylsulfinyl, isohexylsulfinyl, 4-methylpentylsulfinyl, 3-methylpentylsulfinyl, 2-methylpentylsulfinyl, 1-methylpentylsulfinyl, 3,3-dimethylbutylsulfinyl, 2,2-dimethylbutylsulfinyl, 1,1-dimethylbutylsulfinyl, 1,2-dimethylbutylsulfinyl, 1,3-dimethylbutylsulfinyl, 2,3-dimethylbutylsulfinyl, 1-ethylbutylsulfinyl or 2-ethylbutylsulfinyl, among which C1-4 groups are preferred, and methylsulfinyl or ethylsulfinyl is particularly preferred.
# Jurkat cells [3] = assay: Jurkat cell adhesion system (adhesion to immobilized human fibronectin, PMA-stimulated); type: cell-based; details: concentration inhibiting by 50% the PMA-stimulated increase in the number of adhered Jurkat cells on human fibronectin; 45-60 minutes, 37° C.
# Procedure: Evaluation of Compounds in Jurkat Cell Adhesion System
# <Immobilization of Human Fibronectin in 96-Well Plate>
# Human fibronectin (Becton Dickinson Biosciences) was diluted with phosphate-buffered saline (hereinafter abbreviated as PBS; Sigma) to 0.1-0.01 μg/ml, and the diluted solution was added to a 96-well plate (Becton Dickinson) at 50 μl/well, and allowed to stand overnight at 4° C. On the following day, the supernatant was removed from the plate, and then PBS containing 1% bovine serum albumin (hereinafter abbreviated as BSA; Sigma) was added thereto at 100 μl/well and incubation was performed at 37° C. for 2 hours in a CO2 incubator (Hirasawa).
# The supernatant was removed from each plate and Jurkat cells suspended in RPMI-1640 (Sigma) containing 1 mg/ml BSA were added at 80 μl/well for 2.5×10^5 cells/well. The compound diluted to different concentrations with RPMI-1640 containing 1 mg/ml BSA was immediately added at 10 μl/well, and then 100 nM phorbol myristate acetate (hereinafter abbreviated as PMA; Sigma) in RPMI-1640 containing 1 mg/ml BSA was added at 10 μl/well and the plate was incubated in a CO2 incubator at 37° C. for 45-60 minutes. The supernatant was removed from the plate and each well was washed several times with 100 μl/well of RPMI-1640, after which 50 mM citrate buffer (pH 5.0) containing 3.75 mM p-nitrophenol-N-acetyl-β-D-glucosaminide (Sigma) and 0.25% Triton X-100 (Sigma) were added at 60 μl/well, and the mixture was placed in a CO2 incubator and incubated at 37° C. for 45 minutes. After incubation, 50 mM glycine buffer (pH 10.4) containing 5 mM EDTA was added at 90 μl/well, and the absorbance at 405 nm was measured with an EL340 Automated Microplate Reader (BIO-TEK) to determine the adhered cell count. The concentration of each compound which inhibited the increase in the number of adhered cells by the PMA-stimulation by 50% was recorded as the IC50 (μM).
# [4] = tested on: human peripheral blood neutrophils; assay: Human peripheral blood neutrophil adhesion system (adhesion to immobilized HUVEC, PMA-stimulated); type: cell-based; details: 0.75 h, concentration inhibiting by 50% the PMA-stimulated increase in the number of adhered BCECF-AM labeled neutrophils on HUVEC immobilized plate, 45 minutes, 37° C.
# Procedure: Evaluation of Compounds in Human Peripheral Blood Neutrophil Adhesion System
# <Preparation of Human Peripheral Blood Neutrophils>
# To a plastic centrifugation tube containing 100 units of heparin sodium (Shimizu Pharmaceutical) was added 25 ml of fresh blood sampled from a healthy human. After adding and mixing therewith 8 ml of physiological saline (Otsuka Pharmaceutical) containing 6% Dextran (Nacalai), the mixture was allowed to stand at room temperature for 45 minutes for sedimentation of the erythrocytes. The resultant supernatant was transferred to another plastic centrifugation tube and combined with an equivalent volume of phosphate-buffered saline (hereinafter abbreviated as PBS; Sigma), and then centrifuged at 1600 rpm for 7 minutes at room temperature. The obtained hematocyte fraction was suspended in 4 ml of PBS, and the suspension was superposed on 4 ml of Ficoll-Paque™ PLUS (Amersham Biosciences). The resultant bilayer liquid was centrifuged at 2000 rpm for 30 minutes at room temperature, after which the supernatant was removed and the precipitate was suspended in 10 ml of PBS and centrifuged at 1200 rpm for 7 minutes, and the supernatant was removed. The resulting precipitate was suspended in 0.5 ml of PBS again, and then 10 ml of distilled water (Otsuka Pharmaceutical) was added, 0.5 ml of an aqueous solution containing 3 M NaCl was immediately added to restore isotonicity, the mixture was centrifuged at 1200 rpm for 7 minutes, and the obtained precipitate was suspended in PBS containing 1 mg/ml bovine serum albumin (hereinafter abbreviated as BSA; Sigma) again and stored in ice until being used for the experiment.
# <Fluorescent Labeling of Human Peripheral Blood Neutrophils>
# The obtained neutrophils were suspended in PBS containing 1 mg/ml BSA at 2×10^7 cells/ml. BCECF-AM (Dojin) was added to a final concentration of 5 μM, and the mixture was incubated at 37° C. for 45 minutes. It was then rinsed twice with PBS containing 1 mg/ml BSA by centrifugation, suspended again in PBS containing 1 mg/ml BSA at 5×10^7 cells/ml, and stored in ice until use.
# <Preparation of HUVEC Immobilized Plate>
# Human umbilical vein endothelial cells (hereinafter abbreviated as HUVEC) were suspended in MCDB131 medium (Chlorella Industries) containing 10% fetal calf serum and 30 μg/ml endothelial cell growth supplement (Becton Dickinson Bioscience). The suspension was added at 7.5×10^3 cells/well to a 96-well plate (Iwaki) immobilized with type I collagen, and cultured for 3 days in a CO2 incubator (Hirasawa). Upon confirming confluency of the cells, the supernatant was discarded, the plate was rinsed twice with PBS, and then PBS containing 0.1% glutaraldehyde (Kanto Kagaku) was added at 100 μl/well and the HUVECs were immobilized for 5 minutes. The supernatant was discarded and the plate was washed twice with PBS, and then PBS was added at 100 μl/well and the mixture was stored at 4° C. until use.
# To 6.5 ml of RPMI-1640 medium (Sigma) containing 1 mg/ml of BSA were added 0.5 ml of a suspension of BCECF-AM labeled neutrophils at 5×10^7/ml stored in ice, which was mixed, and the mixture was added at 80 μl/well to a HUVEC immobilized plate. To this plate were immediately added 10 μl/well of a solution of the compound diluted at different concentrations with RPMI-1640 containing 1 mg/ml BSA, and 10 μl/well of 100 nM phorbol myristate acetate (hereinafter abbreviated as PMA; Sigma) in RPMI-1640 containing 1 mg/ml BSA, and the mixture was incubated in a CO2 incubator at 37° C. for 45 minutes. The supernatant was removed from the plate, which was then washed several times with RPMI-1640 at 100 μl/well, and then PBS containing 0.1% NP-40 (Calbiochem) was added thereto at 100 μl/well and the fluorescent intensity was measured with and ARVO™SX 1420 multi label counter (Wallac) to determine the number of adhered cells. […]
# Balb/c mice = assay: DSS-induced colitis model; type: in vivo; details: male Balb/c mice; 1-3% DSS for 5-7 days; 30 mg/kg orally once a day for 5-7 successive days
# Source text: Evaluation of Compounds in DSS-Induced Colitis Model
# A 1-3% solution of dextran sulfate sodium (hereinafter abbreviated as DSS; ICN) in purified water (Otsuka Pharmaceutical) was fed freely to 6- to 7-week-old male Balb/c mice (Charles River Japan) for 5-7 days to induce colitis. Disease Activity Index (hereinafter abbreviated as DAI) scored based on fecal hardness, blood content in feces and body weight change, the number of neutrophils infiltrating the colon and the length of the colon were used as indexes to evaluate compounds. Each compound was suspended or dissolved in an aqueous solution containing 0.5% methyl cellulose (Wako), and orally administered at 30 mg/kg once a day, for 5-7 successive days.
IC50 (Jurkat cells [1]),IC50 [2],IC50 (Jurkat cells [3]),IC50 [4],Compound,"improvement in comparison with the DSS control group (DAI, number of neutrophils infiltrating the colon, length of the colon) (Balb/c mice)"
3.4 µM,16.7 µM,,,"CCCN1CCN(c2cc3c(cc2C2=CCC(C(C)(C)C)CC2)N(C)CCO3)CC1 (racemic) [Example 8, 6-(4-t-Butylcyclohex-1-enyl)-4-methyl-7-(4-propylpiperazin-1-yl)-3,4-dihydro-2H-benzo[1,4]oxazine hydrochloride]",
3.3 µM,7.8 µM,,,"CCCCN1CCN(c2cc(OCCOC)ccc2C2CC(C)(C)CC(C)(C)C2)CC1 [Example 10, 1-Butyl-4-[5-(2-methoxyethoxy)-2-(3,3,5,5-tetramethylcyclohexyl)phenyl]piperazine hydrochloride]",
14.7 µM,12.5 µM,,,"CCCN1CCN(c2ccc(OCCOC)cc2C2CC(C)(C)CC(C)(C)C2)CC1 [Example 12, 1-[4-(2-Methoxyethoxy)-2-(3,3,5,5-tetramethylcyclohexyl)phenyl]-4-propylpiperazine hydrochloride]",
3.8 µM,21.7 µM,,,"CCCCN1CCN(c2cc3c(cc2C2=CC(C)(C)CC(C)(C)C2)OCO3)CC1 [Example 13, 1-Butyl-4-[6-(3,3,5,5-tetramethylcyclohex-1-enyl)benzo [1,3]dioxol-5-yl]piperazine hydrochloride]",
7.1 µM,22.4 µM,,,"CCCCN1CCN(c2cc3c(cc2C2CC(C)(C)CC(C)(C)C2)OCO3)CC1 [Example 14, 1-Butyl-4-[6-(3,3,5,5-tetramethylcyclohexyl)benzo[1,3]dioxol-5-yl]piperazine hydrochloride]",
,,3.6 µM,7 µM,"CCCCN1CCN(c2ccc(N3CCC(OC)CC3)cc2C2CC(C)(C)CC(C)(C)C2)CC1.Cl [Example 32, 1-Butyl-4-[4-(4-methoxypiperidin-1-yl)-2-(3,3,5,5-tetramethylcyclohexyl)phenyl]piperazine hydrochloride]",particularly good improvement
